{"source": "patent US12312631B1", "about": "“High-throughput multiplexed sensitivity and resistance assay” (SAGEMEDIC CORPORATION, priority 2022, dated 2025)", "key": {"A549 cells [1]": {"test_system": "A549 cells", "assay": "ATP release into extracellular fluid or after lysis buffer, with or without Triton X, after PFA", "type": "cell-based", "description": "In a factorial design, the cells were a) treated with 0%, 0.2%, or 1% PFA, and b) treated with or without 0.5% Triton X. ATP was then measured either from the extracellular fluids or within the wells after the use of a cell lysis buffer.\nOne out of 3 wells were incubated with 0%, 0.2%, and 1% PFA for 15 minutes and PFA was washed out 3 times with PBS. Half of the wells were then treated with 0.5% Triton X for 10 minutes and the other half received no Triton. The extracellular fluid from half of the 0.5% Triton X treated wells was then transferred to another well-plate and ATP was measured using a luciferin/luciferase complex. The other half of the 0.5% Triton X treated wells were first treated with a lysis buffer and then ATP was measured using the same luciferin/luciferase complex."}, "luciferase": {"test_system": "luciferase", "description": "We assessed four groups of A549 cells: with 0.0625% PFA, 0.25% PFA, 1% PFA, and 4% PFA, each of them at 0%, 1%, 5%, or 25% of human serum. For each group, A549 cells were plated in 96 well plates with 4 replicates of 1,000 cells at 100 μl per well. The cell culture medium was DMEM/F12 plus 10% human serum. Luciferase-catalyzed ATP luminescence was then measured using the CellTiter-Glo assay per manufacturer's instructions.\nA combination of PFA and serum mixture was then created using a 4×4 factorial design of 0.0625%, 0.25%, 1%, or 4% of PFA, and 0%, 1%, 5%, or 25% of human serum, and incubated for 15 min at room temperature. The mixture was then added to the wells and a second round of RLU measurements were taken within 5 min."}, "A549 cells [2]": {"test_system": "A549 cells", "description": "Furthermore, since serum contains proteins, we wanted to know whether incubating and washing with serum could neutralize any potentially residual effect of PFA on ATP measurements. Thus, we created a 4×4 factorial design to expose the cells with 0.0625%, 0.25%, 1%, or 4% of PFA and 0%, 1%, 5%, or 25% of human serum.\nFor this experiment, A549 cells were plated in 96-well plates with 4 replicates of in 100 μl per well (cell culture medium was DMEM/F12 plus 10% human serum). Cells were fixed with the PFA concentrations for 5 min and washed 3× with phosphate-buffered saline (PBS).\nThe cells were then incubated at various serum concentrations for 10 min and then washed twice with PBS. Finally, luciferase catalyzed ATP luminescence was measured as per manufacturer's instructions."}, "A549 cells [3]": {"test_system": "A549 cells", "conditions": "2% or 4% PFA for 15 min, thoroughly washed out", "experimental": "An experiment was therefore conducted to see what if any effect PFA had on cellular ATP content and whether it would still be possible to detect ATP in fixed tissue/cells. Four groups of cells were tested: • Group 1 was not pretreated with PFA (control). • Group 2 was treated with 2% PFA. • Group 3 was pretreated with 2% PFA that was then washed out. • Group 4 was pretreated with 4% PFA that was then washed out.\nThe experiment was conducted as follows. For each group, A549 cells (Catalog No. CCL-185, ATCC, Manassas, VA, USA) were plated in 96-well plates (200 μl/well) with 8 replicates of 1,000 cells in 50 μl cell culture medium per well (DMEM/F12 plus 10% human serum). Cells in group 1, the control group, was not treated with PFA. Cells in groups 2, 3, and 4 were incubated for 15 min. with 2%, 2%, and 4% PFA, respectively. PFA remained in the wells of group 2 and PFA was removed from groups 3 and 4 by washing 3 times with 100 μl Cell culture medium. Luciferase catalyzed ATP luminescence was measured as per CellTiter-Glo 3D manufacturer's instructions.\nLuminescence was measured with a BioTek Synergy LX plate reader (Agilent, Santa Clara, CA, U.S.A.) and calculations were performed to quantify, measure, and/or correlate ATP level with cell viability.\nWe also used relative luminescence unit (RLU) as arbitrary units to calculate ATP level to cell viability."}, "[4]": {"conditions": "2% to 4% formalin"}}, "note": "Like-named read-outs stand apart in the source and are kept apart here."}
{"compound": "Triton X", "values": [{"measurement": "ATP release", "setting": "A549 cells [1]; 0.5% Triton X alone for 10 minutes, no PFA, RLUs similar to lysis buffer", "value": "complete ATP release"}]}
{"compound": "paraformaldehyde [PFA]", "values": [{"measurement": "luciferase activity blocked", "setting": "luciferase; 1% PFA", "value": "about 90%"}, {"measurement": "luciferase activity blocked", "setting": "luciferase; 4% PFA", "value": "almost completely blocked"}, {"measurement": "change of RLUs", "setting": "luciferase; up to 0.25% PFA added to the CellTiter-Glo solution", "value": "did not change the RLUs"}, {"measurement": "RLU (ATP luminescence) Avg.", "setting": "A549 cells [2]; PFA 0.06%, average over serum levels", "value": "47,729 RLU"}, {"measurement": "RLU (ATP luminescence)", "setting": "A549 cells [2]; PFA 0.06%, serum 0%", "value": "39,815 RLU"}, {"measurement": "RLU (ATP luminescence)", "setting": "A549 cells [2]; PFA 0.06%, serum 1%", "value": "46,022 RLU"}, {"measurement": "RLU (ATP luminescence)", "setting": "A549 cells [2]; PFA 0.06%, serum 5%", "value": "51,674 RLU"}, {"measurement": "RLU (ATP luminescence)", "setting": "A549 cells [2]; PFA 0.06%, serum 25%", "value": "53,405 RLU"}, {"measurement": "RLU (ATP luminescence) Avg.", "setting": "A549 cells [2]; PFA 0.25%, average over serum levels", "value": "58,470 RLU"}, {"measurement": "RLU (ATP luminescence)", "setting": "A549 cells [2]; PFA 0.25%, serum 0%", "value": "44,249 RLU"}, {"measurement": "RLU (ATP luminescence)", "setting": "A549 cells [2]; PFA 0.25%, serum 1%", "value": "61,899 RLU"}, {"measurement": "RLU (ATP luminescence)", "setting": "A549 cells [2]; PFA 0.25%, serum 5%", "value": "59,651 RLU"}, {"measurement": "RLU (ATP luminescence)", "setting": "A549 cells [2]; PFA 0.25%, serum 25%", "value": "68,082 RLU"}, {"measurement": "RLU (ATP luminescence) Avg.", "setting": "A549 cells [2]; PFA 1%, average over serum levels", "value": "40,598 RLU"}, {"measurement": "RLU (ATP luminescence)", "setting": "A549 cells [2]; PFA 1%, serum 0%", "value": "38,892 RLU"}, {"measurement": "RLU (ATP luminescence)", "setting": "A549 cells [2]; PFA 1%, serum 1%", "value": "45,576 RLU"}, {"measurement": "RLU (ATP luminescence)", "setting": "A549 cells [2]; PFA 1%, serum 5%", "value": "34,194 RLU"}, {"measurement": "RLU (ATP luminescence)", "setting": "A549 cells [2]; PFA 1%, serum 25%", "value": "43,731 RLU"}, {"measurement": "RLU (ATP luminescence) Avg.", "setting": "A549 cells [2]; PFA 4%, average over serum levels", "value": "26,464 RLU"}, {"measurement": "RLU (ATP luminescence)", "setting": "A549 cells [2]; PFA 4%, serum 0%", "value": "22,097 RLU"}, {"measurement": "RLU (ATP luminescence)", "setting": "A549 cells [2]; PFA 4%, serum 1%", "value": "34,860 RLU"}, {"measurement": "RLU (ATP luminescence)", "setting": "A549 cells [2]; PFA 4%, serum 5%", "value": "23,912 RLU"}, {"measurement": "RLU (ATP luminescence)", "setting": "A549 cells [2]; PFA 4%, serum 25%", "value": "24,987 RLU"}, {"measurement": "RLU (ATP luminescence) Avg.", "setting": "A549 cells [2]; average over PFA concentrations, serum 0%", "value": "36,263 RLU"}, {"measurement": "RLU (ATP luminescence) Avg.", "setting": "A549 cells [2]; average over PFA concentrations, serum 1%", "value": "47,089 RLU"}, {"measurement": "RLU (ATP luminescence) Avg.", "setting": "A549 cells [2]; average over PFA concentrations, serum 5%", "value": "42,358 RLU"}, {"measurement": "RLU (ATP luminescence) Avg.", "setting": "A549 cells [2]; average over PFA concentrations, serum 25%", "value": "47,551 RLU"}, {"measurement": "RLU (ATP luminescence) Avg.", "setting": "A549 cells [2]; average over all PFA concentrations and serum levels", "value": "43,315 RLU"}, {"measurement": "ATP luminescence compared with the control group", "setting": "A549 cells [3]", "value": "less than half of the control group"}, {"measurement": "ATP released into the extracellular fluid", "setting": "A549 cells [1]; 0.2% and 1% PFA, then 0.5% Triton X, same effect after cell lysis buffer", "value": "inhibited in a dose-dependent manner"}, {"measurement": "ATP leakage into the extracellular fluid", "setting": "A549 cells [1]; 0.2% or 1% PFA, without Triton X", "value": "neither 0.2% nor 1% PFA lead to some ATP leakage"}]}
{"compound": "C=O", "note": "[formalin]", "values": [{"measurement": "ATP still detectable in lysed cells after fixation", "setting": "[4]", "value": "almost half"}]}
